Tests used:
PBMCs = test: Multicolor flow cytometry of PBMCs (high cohort); type: in vivo, rat
Method: An additional cohort of rats (termed “high cohort”) was evaluated to determine effects of SMM-189 on immune cell populations in the brain, resident or infiltrating, and the periphery as measured by flow cytometry (Fig. 1). To ensure infiltrating peripheral immune cells, rats were stereotaxically injected with a higher titer of AAV2/5-human WT Asyn (4.6 × 10^12 vg/mL) and underwent an identical drug treatment timeline with animals sacrificed at 4 (SMM-189: n = 5; vehicle: n = 6) and 8 weeks (SMM-189: n = 7; vehicle: n = 7). At sacrifice, animals were deeply anesthetized with euthasol (i.p., 150 mg/kg) and rapid decapitation performed using a sharp guillotine. Brains were collected at endpoints, and brain immune cells isolated and evaluated using multicolor flow cytometry. Additionally, blood was collected at baseline, 4 and 8 weeks (SMM-189: n = 13; vehicle: n = 13) after stereotaxic surgery for PBMCs isolation to immunophenotype using flow cytometry and for plasma evaluation of SMM-189.
PBMCs were isolated from blood of low cohort rats at euthanasia (8 weeks) for qPCR analysis of immune genes and from blood of high cohort rats at baseline, 4 and 8 weeks after AAV2/5-human WT Asyn and evaluated with flow cytometry for a longitudinal immunophenotype assessment. Red blood cells were lysed using 1x RBC lysis buffer (Biolegend Cat#420301) for 5 min in the dark. Lysis buffer was neutralized by adding 1x HBSS (Gibco Cat#14175095). Cells were pelleted by centrifugation at 400g for 5 min, supernatant removed, and cells washed with HBSS. For the high cohort, cells were resuspended in 200μL of PBS and transferred to a 96-well v-bottom plate for flow cytometry staining. For low cohort, 10,000 cells were lysed in 600μL RLT lysis buffer (Qiagen Cat#79216) + 1% BME, further homogenized by centrifugation through a QiaShredder column (2 min at 21,130g). Lysate was then stored at -80°C and later processed for RNA extraction.
Peripheral and central immune cell staining was performed similarly as previously published protocols. In brief, immune cells were washed and resuspended in PBS, then incubated for 30 min at room temperature in LIVE/DEAD Fixable Red Dead cell stain (ThermoFisher Scientific Cat#L23102; 1:2000). Following two washes in PBS, Fc receptors were blocked with anti-rat CD32 Fc block diluted 1:100 in FACS buffer (1mM EDTA and 0.1% sodium azide in PBS) for 15 min at 4°C. PBMCs were stained for separate myeloid and lymphoid panels and brain immune cells stained with an antibody panel to identify microglia, monocytes and lymphocytes (Table S1-S3). Fluorophore conjugated antibodies diluted with FACS buffer were incubated at 4 °C for 20 min. Cells stained for surface myeloid markers were fixed in 1% PFA for 25 min and washed in FACS.
PBMCs stained with lymphoid panel were further probed intracellularly for transcriptional marker Foxp3 to label […] T cells. […] Then washed and resuspended in FACs buffer. All samples had 10uL of AccuCheck Counting beads (ThermoFisher Cat#PCB100) added to final suspension and cells were run on a LSRII Instrument (BD Biosciences, Franklin Lakes, NJ) with FACSDiva software (BD Biosciences). Results were analyzed using FlowJo 10.8.1 software and brain immune populations of monocytes (classical and non-classical), lymphocytes (CD4 + and CD8+) or microglia and PBMC populations defined by specific strategies (Figure S1-S3).
For PBMC analysis, raw frequencies were normalized across serial runs against vehicle-treated values using the following equation: Raw frequency / (average vehicle frequencies of specific run / average baseline frequencies). For brain immune cell analysis of 8 weeks, samples could not be collected and ran the same day so frequencies were normalized across treatment group at each timepoint using the following equation: raw frequency / (average treatment frequency of specific run 1 / average treatment frequency of specific run 2). […]

[1] = tested on: IBA1, CD68, CD163, MHCII in substantia nigra; test: Immunohistochemistry/immunofluorescence of immune cell markers in substantia nigra; type: in vivo; conditions: rat low cohort, 6 mg/kg i.p. daily 7 weeks, vs vehicle
Method: Brains were post-fixed in 4%PFA for 48 h and transferred to 30% sucrose and cut at 40 μm on a freezing microtome. In brief, endogenous peroxidase was quenched with 3% hydrogen peroxide, blocked with 8% normal serum, avidin (Vector Cat#SP-2001) and 0.1% Triton-X and incubated overnight at 4°C with biotin (Vectorlabs Cat#SP-2001), normal serum and primary antibodies specific for Asyn (Clone 4B12; BioLegend Cat# 807801, RRID: AB_2564730), pSer129 Asyn (Clone EP1536Y; Abcam Cat# ab51253, RRID: AB_869973), CD68 (Bio-Rad Cat# MCA341R, RRID: AB_2291300), MHCII (Bio-Rad Cat# MCA46GA, RRID: AB_567369), and CD163 (Bio-Rad Cat# MCA342A, RRID: AB_2074557). Tissue was incubated in appropriate biotinylated secondary antibodies (1:200), amplified with Vectastain ABC kit (Vectorlabs Cat#PK-6100) and developed with diaminobenzidine tablets or diaminobenzidine drop kit with nickel (Vector Cat#SK-4100) for CD68 immunostaining.
Tissue was blocked with 5% normal serum in TBS + 0.25% Triton-X and further incubated overnight at 4°C with primary antibodies specific for IBA1 (FUJIFILM Wako Pure Chemical Corporation Cat# 019-19741, RRID: AB_839504) and tyrosine hydroxylase (ImmunoStar Cat# 22941, RRID: AB_572268) to identify microglia in the substantia nigra or tyrosine hydroxylase (Millipore Cat# AB152, RRID: AB_390204) and Asyn (Clone 4B12; BioLegend Cat# 807801, RRID: AB_2564730) to evaluate accuracy of stereotaxic injection targets. Tissue was incubated in secondary antibodies conjugated to appropriate fluorophores for 2 h at room temperature and mounted tissue with Vectashield, an aqueous mounting media with DAPI (Vectorlabs Cat#H-2000).
IBA1-positive total immune cell counts and area of immunoreactivity (ir) were quantified using Nikon NIS elements software. Four fluorescent z-stacks of IBA1 stained nigra were collected from images of lesioned and non-lesioned nigra from targeted low cohort animals using a Nikon Eclipse 90i microscope and maximum project images were used for quantification. CD68-ir and CD163-ir was quantified from two to three microphotographs from each animal throughout the substantia nigra using ImageJ particle count analysis. Microphotographs of the nigra immunochemically stained for either Asyn, pSer129 Asyn and proteinase K-resistant Asyn were quantified using Image J (version 1.54f). Regions of Interest (ROIs) were drawn on two to three images throughout the nigra and optical density measurements collected and averaged for each animal. Measurements were normalized to the vehicle group so that data from all cohorts could be combined.

[2] = type: in vivo; conditions: 6 mg/kg i.p. daily, ~2 h post-dose
Method: One week after surgery, animals were randomly selected to receive daily systemic injections of either SMM-189 (intraperitoneal (i.p.), 6 mg/kg, n = 12) or vehicle (i.p., n = 12) and followed for 8 weeks (Figs. 1; n = 2 rats per group were removed due to poor nigral targeting). […] Plasma was also collected at baseline, 4 and 8 weeks post-AAV-hAsyn injections and CSF collected prior to perfusion to measure levels of SMM-189.
Blood was collected from the tail vein at baseline and every 4 weeks post-AAV (~ 2 h post-treatment injection) for plasma to measure SMM-189 levels in low and high cohorts and for PBMCs to immunophenotype circulating immune cells in the high cohort animals. […] Tails were cleaned with ethanol and approximately 400μL of blood drawn from the lateral tail vein using a low dead space 25ga needle and syringe and blood immediately placed into an EDTA tube.
CSF was collected at endpoint from low cohort animals. […] A sterile pulled micropipettes attached to tubing and a syringe punctured into the cisterna magna and clean CSF was aspirated and collected in a 0.2mL Eppendorf and stored at -80°C.
A total of 50 µL aliquots of plasma or CSF were prepared by protein precipitation with 100 µL acetonitrile (spiked with the internal standard d^5-SMM-189) followed by centrifugation at 10,000g for 10 min at 4°C. Chromatographic separation of the supernatant was performed using a Zorbax SB-C18 3.5 μm 4.6 × 150 mm and a Shimadzu HPLC Nexera XR with Solvent Delivery Module LC-20ADXR, CTO-20AC prominence column oven (temperature 40 °C), a DGU-20A5R Degassing Unit, and a SIL-20ACXR autosampler. The aqueous mobile phase (A) was 95% water and 5% acetonitrile (B) was 100% acetonitrile.

**Q.** Which “MHCII MFI on CD43-His48+ classical monocytes” value (PBMCs; 4 weeks, vs control) does the source give for `O=C(c1ccccc1)c1cc(O)c(-c2cc(Cl)cc(Cl)c2)c(O)c1` [SMM-189] here?
**A.** Its value is “increased”.

**Q.** And the “frequencies of Tregs (CD4+Foxp3+; CD4+Foxp3+CD25+)” value (PBMCs; 8 weeks compared to own baseline)?
**A.** Its value is “elevated”.

**Q.** What about the granulocytes (PBMCs; 8 weeks, vs vehicle) of the same compound?
**A.** The granulocytes was “decreases”.

**Q.** And the “wound-healing non-classical monocytes (CD43+)” value (PBMCs; 8 weeks, vs vehicle)?
**A.** Its value is “increases”.

**Q.** And the “Lymphocyte frequencies of CD4 or CD8 populations (or the CD4 to CD8 ratio)” value (PBMCs; between treatments)?
**A.** Its value is “did not reveal significant differences”.

**Q.** And the “counts of both CD4 and CD8+ T cells” value (PBMCs; vs vehicle)?
**A.** The value was “decreased”.

**Q.** What about the “circulating classically-activated monocytes (CD43-His48+)” value (PBMCs; weeks 4 and 8, vs vehicle) of the same compound?
**A.** Its value is “reduced”.

**Q.** And the “IBA1 counts and area in nigra, effect of treatment” value [1]?
**A.** Its value is “not a significant effect of treatment”.

**Q.** And the “intensity or area coverage of MHCII in the lesioned nigra” value [1]?
**A.** Its value is “No differences”.

**Q.** And the “nigral CD68-ir particle counts” value ([1]; AAV-injected nigra)?
**A.** The value was “increased”.

**Q.** What about the “CD163 in the nigra” value ([1]; lesioned nigra) of the same compound?
**A.** Its value is “decreased”.

**Q.** What about the “SMM-189 plasma levels compared to vehicle” value ([2]; rat high cohort, 4 and 8 weeks) of the same compound?
**A.** The value was “increased”.

**Q.** And the “level of plasma SMM-189 compared to vehicle-treated rats” value ([2]; rat low cohort, 4 and 8 weeks)?
**A.** Its value is “Significant increases”.

**Q.** What about the “Levels of SMM-189 in the CSF, average ± SEM” value ([2]; rat low cohort, endpoint) of the same compound?
**A.** Its value is 0.44 ± 0.22 ng/mL.

From article PMC11438102, “Modulation of cannabinoid receptor 2 alters neuroinflammation and reduces formation of alpha-synuclein aggregates in a rat model of nigral synucleinopathy” (Journal of Neuroinflammation, 2024)
